Source: PubChem BioAssay (NCI)
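In this assay, cells in 96-well plates receive the compound at five concentrations for 48 hours. Endpoints are linearly interpolated between the surrounding concentrations. Here, GI50 denotes the concentration required for 50% inhibition of growth. TGI denotes the concentration required for complete inhibition of growth.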

Experiments:
Experiment in all cases: inhibition of tumour cell growth, NCI panel, 48 h
HCT-116 colon = tested on: HCT-116 colon
SN12C renal = tested on: SN12C renal
LOX IMVI melanoma = tested on: LOX IMVI melanoma
NCI-H226 lung = tested on: NCI-H226 lung
HT29 colon = tested on: HT29 colon
DU-145 prostate = tested on: DU-145 prostate
MCF7 breast = tested on: MCF7 breast
OVCAR-8 ovarian = tested on: OVCAR-8 ovarian
ACHN renal = tested on: ACHN renal
NCI/ADR-RES ovarian = tested on: NCI/ADR-RES ovarian
SF-539 CNS = tested on: SF-539 CNS
A549 NSCLC = tested on: A549 NSCLC
HCT-15 colon = tested on: HCT-15 colon
MALME-3M melanoma = tested on: MALME-3M melanoma
CAKI-1 renal = tested on: CAKI-1 renal
MDA-MB-231 breast = tested on: MDA-MB-231 breast
SW-620 colon = tested on: SW-620 colon
BT-549 breast = tested on: BT-549 breast
HOP-92 NSCLC = tested on: HOP-92 NSCLC
HL-60(TB) leukemia = tested on: HL-60(TB) leukemia
HCC-2998 colon = tested on: HCC-2998 colon
OVCAR-4 ovarian = tested on: OVCAR-4 ovarian
CCRF-CEM leukemia = tested on: CCRF-CEM leukemia
TK-10 renal = tested on: TK-10 renal
KM12 colon = tested on: KM12 colon
786-0 renal = tested on: 786-0 renal
HS 578T breast = tested on: HS 578T breast
UACC-62 melanoma = tested on: UACC-62 melanoma
M14 melanoma = tested on: M14 melanoma
MOLT-4 leukemia = tested on: MOLT-4 leukemia
NCI-H23 lung = tested on: NCI-H23 lung
K-562 leukemia = tested on: K-562 leukemia
T-47D breast = tested on: T-47D breast
OVCAR-5 ovarian = tested on: OVCAR-5 ovarian
OVCAR-3 ovarian = tested on: OVCAR-3 ovarian
RPMI-8226 leukemia = tested on: RPMI-8226 leukemia
U251 CNS = tested on: U251 CNS
NCI-H522 lung = tested on: NCI-H522 lung
NCI-H460 lung = tested on: NCI-H460 lung
SK-OV-3 ovarian = tested on: SK-OV-3 ovarian
HOP-62 NSCLC = tested on: HOP-62 NSCLC
SNB-19 CNS = tested on: SNB-19 CNS
IGROV1 ovarian = tested on: IGROV1 ovarian
RXF 393 renal = tested on: RXF 393 renal
PC-3 prostate = tested on: PC-3 prostate
SR leukemia = tested on: SR leukemia
UO-31 renal = tested on: UO-31 renal
UACC-257 melanoma = tested on: UACC-257 melanoma
SK-MEL-2 melanoma = tested on: SK-MEL-2 melanoma
EKVX NSCLC = tested on: EKVX NSCLC
MDA-MB-435 = tested on: MDA-MB-435
SF-268 CNS = tested on: SF-268 CNS
SK-MEL-5 melanoma = tested on: SK-MEL-5 melanoma
SF-295 CNS = tested on: SF-295 CNS
A498 renal = tested on: A498 renal
COLO 205 colon = tested on: COLO 205 colon
SK-MEL-28 melanoma = tested on: SK-MEL-28 melanoma

## C=C1C(=O)O[C@H]2[C@H]1CC/C(COC(=O)NCc1ccc(Cn3c(=O)sn(CCCC)c3=O)cc1)=C\CC[C@@]1(C)O[C@@H]21
HCT-116 colon
  GI50: 1.36 µM
  TGI: 2.78 µM
SN12C renal
  GI50: 1.73 µM
  TGI: 3.93 µM
LOX IMVI melanoma
  GI50: 1.65 µM
  TGI: 3.08 µM
NCI-H226 lung
  GI50: 11.9 µM
  TGI: 29.8 µM
HT29 colon
  GI50: 2.08 µM
  TGI: 4.18 µM
DU-145 prostate
  GI50: 1.81 µM
  TGI: 3.36 µM
MCF7 breast
  GI50: 1.87 µM
  TGI: 3.91 µM
OVCAR-8 ovarian
  GI50: 3.64 µM
  TGI: 15.2 µM
ACHN renal
  GI50: 1.67 µM
  TGI: 3.08 µM
NCI/ADR-RES ovarian
  GI50: 27.8 µM
  TGI: 97.9 µM
SF-539 CNS
  GI50: 1.68 µM
  TGI: 3.24 µM
A549 NSCLC
  GI50: 13.4 µM
  TGI: 28.7 µM
HCT-15 colon
  GI50: 2.02 µM
  TGI: 3.76 µM
MALME-3M melanoma
  GI50: 1.6 µM
  TGI: 3.32 µM
CAKI-1 renal
  GI50: 1.64 µM
  TGI: 3.24 µM
MDA-MB-231 breast
  GI50: 1.8 µM
  TGI: 3.57 µM
SW-620 colon
  GI50: 1.51 µM
  TGI: 3.09 µM
BT-549 breast
  GI50: 1.56 µM
  TGI: 3.03 µM
HOP-92 NSCLC
  GI50: 1.29 µM
  TGI: 2.72 µM
HL-60(TB) leukemia
  GI50: 1.81 µM
  TGI: 5.42 µM
HCC-2998 colon
  GI50: 4.1 µM
  TGI: 13.4 µM
OVCAR-4 ovarian
  GI50: 1.52 µM
  TGI: 3.05 µM
CCRF-CEM leukemia
  GI50: 0.657 µM
  TGI: 4.56 µM
TK-10 renal
  GI50: 1.81 µM
  TGI: 3.59 µM
KM12 colon
  GI50: 14.8 µM
  TGI: 29.4 µM
786-0 renal
  GI50: 2 µM
  TGI: 4.02 µM
HS 578T breast
  GI50: 3.24 µM
  TGI: 12.7 µM
UACC-62 melanoma
  GI50: 1.62 µM
  TGI: 3.22 µM
M14 melanoma
  GI50: 1.45 µM
  TGI: 2.97 µM
MOLT-4 leukemia
  GI50: 1.55 µM
  TGI: 5.73 µM
NCI-H23 lung
  GI50: 4.19 µM
  TGI: 15.3 µM
K-562 leukemia
  GI50: 0.891 µM
  TGI: > 100 µM
T-47D breast
  GI50: 2.04 µM
  TGI: 4.83 µM
OVCAR-5 ovarian
  GI50: 1.93 µM
  TGI: 4.06 µM
OVCAR-3 ovarian
  GI50: 1.59 µM
  TGI: 2.97 µM
RPMI-8226 leukemia
  GI50: 1.48 µM
  TGI: 4.07 µM
U251 CNS
  GI50: 4.15 µM
  TGI: 15.5 µM
NCI-H522 lung
  GI50: 1.19 µM
  TGI: 2.88 µM
NCI-H460 lung
  GI50: 5.92 µM
  TGI: 19.6 µM
SK-OV-3 ovarian
  GI50: 15.2 µM
  TGI: 28.7 µM
HOP-62 NSCLC
  GI50: 12.7 µM
  TGI: 26.6 µM
SNB-19 CNS
  GI50: 6.63 µM
  TGI: 19.6 µM
IGROV1 ovarian
  GI50: 1.83 µM
  TGI: 3.93 µM
RXF 393 renal
  GI50: 1.57 µM
  TGI: 3.04 µM
PC-3 prostate
  GI50: 1.75 µM
  TGI: 3.56 µM
SR leukemia
  GI50: 0.407 µM
  TGI: 5.39 µM
UO-31 renal
  GI50: 1.45 µM
  TGI: 2.78 µM
UACC-257 melanoma
  GI50: 2.03 µM
  TGI: 4.93 µM
SK-MEL-2 melanoma
  GI50: 4.52 µM
  TGI: 17 µM
EKVX NSCLC
  GI50: 3.32 µM
  TGI: 9.83 µM
MDA-MB-435
  GI50: 1.65 µM
  TGI: 3.22 µM
SF-268 CNS
  GI50: 4.28 µM
  TGI: 17.2 µM
SK-MEL-5 melanoma
  GI50: 3.18 µM
  TGI: 9.48 µM
SF-295 CNS
  GI50: 15.3 µM
  TGI: 29 µM
A498 renal
  GI50: 3.28 µM
  TGI: 14.1 µM
COLO 205 colon
  GI50: 2 µM
  TGI: 3.88 µM
SK-MEL-28 melanoma
  GI50: 1.8 µM
  TGI: 3.36 µM
